Values quoted from earlier work in patent US20060204445A1, “Cell scaffold matrices with image contrast agents” (priority 2005, published 2006).

Conditions: in vivo

- normal half-life of heparin: 1 to 2 h
Substance: heparin
